Source: the supplement of paper PMC11061612

Columns and labels:
Assay in all cases: Bliss excess, mean over the matrix (fraction); higher = more synergy
[1] = test system: SNU-C2B (Colorectal Carcinoma)
Outline: (§1)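 Cell lines in DMEM/F12 or RPMI with 10% FBS were plated in 1536-well plates, held 24 hours at 37°C, 5% CO2, then given two-drug dose matrices for 72 hours (DMSO typically 0.2%). Viability was read by CellTiter-Glo 2.0 luminescence and scaled as inhibition from 0 (vehicle wells) to 1 (blank wells). Combination Emax is the second-highest inhibition in the matrix; Bliss excess is observed combination effect minus expected EA + EB − EA·EB, EA and EB being single-agent effects.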

[2] = test system: MDA-MB-415 (Breast Carcinoma)
Outline: as §1

[3] = test system: P30-OHK (B-Lymphoblastic Leukemia)
Outline: as §1

WM35 (Melanoma) = test system: WM35 (Melanoma)
Outline: as §1

[4] = test system: TUR (Acute Myeloid Leukemia)
Outline: as §1

SK-N-SH (Neuroblastoma) = test system: SK-N-SH (Neuroblastoma)
Outline: as §1

[5] = test system: SCC-4 (Oral Cavity Carcinoma)
Outline: as §1

[6] = test system: CPC-N (Small Cell Lung Carcinoma)
Outline: as §1

[7] = test system: LCLC-103H (Non-Small Cell Lung Carcinoma)
Outline: as §1

[8] = test system: MOLT-13 (T-Lymphoblastic Leukemia)
Outline: as §1

[9] = test system: SKG-IIIa (Cervical Carcinoma)
Outline: as §1

[10] = test system: C-33-A (Cervical Carcinoma)
Outline: as §1

T47D (Breast Carcinoma) = test system: T47D (Breast Carcinoma)
Outline: as §1

[11] = test system: HT-1080 (Other Solid Carcinomas)
Outline: as §1

[12] = test system: COR-L88 (Small Cell Lung Carcinoma)
Outline: as §1

[13] = test system: MOLP-8 (Plasma Cell Myeloma)
Outline: as §1

KALS-1 (Glioblastoma) = test system: KALS-1 (Glioblastoma)
Outline: as §1

[14] = test system: NCI-H1963 (Small Cell Lung Carcinoma)
Outline: as §1

[15] = test system: PA-TU-8988T (Pancreatic Carcinoma)
Outline: as §1

[16] = test system: BHT-101 (Thyroid Gland Carcinoma)
Outline: as §1

SMILES	Bliss excess [1]	Bliss excess [2]	Bliss excess [3]	Bliss excess (WM35 (Melanoma))	Bliss excess [4]	Bliss excess (SK-N-SH (Neuroblastoma))	Bliss excess [5]	Bliss excess [6]	Bliss excess [7]	Bliss excess [8]	Bliss excess [9]	Bliss excess [10]	Bliss excess (T47D (Breast Carcinoma))	Bliss excess [11]	Bliss excess [12]	Bliss excess [13]	Bliss excess (KALS-1 (Glioblastoma))	Bliss excess [14]	Bliss excess [15]	Bliss excess [16]
CC(=O)Nc1cccc(-n2c(=O)n(C3CC3)c(=O)c3c(Nc4ccc(I)cc4F)n(C)c(=O)c(C)c32)c1 [Trametinib] + Cc1nc(-c2cn3c(n2)-c2ccc(-c4cnn(C(C)(C)C(N)=O)c4)cc2OCC3)n(C(C)C)n1 [Taselisib] (first compound max 1 µM, 7x7, partner max 10 µM)	0.114	-0.0162	0.151	0.124	0.157	0.077	0.147	0.0985	0.0657	0.153	0.112	0.0744	0.0046	0.0288	0.0085	0.186	0.0751	0.0452	0.173	0.115
CC1(C)CCC(CN2CCN(c3ccc(C(=O)NS(=O)(=O)c4ccc(NCC5CCOCC5)c([N+](=O)[O-])c4)c(Oc4cnc5[nH]ccc5c4)c3)CC2)=C(c2ccc(Cl)cc2)C1 [Venetoclax] + C1CN(CCC1(C(=O)N[C@@H](CCO)C2=CC=C(C=C2)Cl)N)C3=NC=NC4=C3C=CN4 [Capivasertib] (first compound max 1 µM, 7x7, partner max 3 µM)	-0.0833	-0.102	0.058	-0.0456	-0.0176	-0.0998	-0.0792	-0.0365	-0.0756	0.0354	-0.0207	-0.0453	-0.0113	-0.0351	-0.0181	-0.0114	-0.0501	-0.0031	0.0237	-0.0312
CC1(C)CCC(CN2CCN(c3ccc(C(=O)NS(=O)(=O)c4ccc(NCC5CCOCC5)c([N+](=O)[O-])c4)c(Oc4cnc5[nH]ccc5c4)c3)CC2)=C(c2ccc(Cl)cc2)C1 [Venetoclax] + C=CCn1c(=O)c2cnc(Nc3ccc(N4CCN(C)CC4)cc3)nc2n1-c1cccc(C(C)(C)O)n1 [AZD1775] (first compound max 1 µM, partner max 1 µM)	-0.009	-0.028	0.207	-0.0447	-0.0071	0.0526	0.0032	0.0439	-0.0136	0.0723	-0.0362	0.0262	-0.0814	-0.0359	0.0736	-0.0225	0.0815	0.123	-0.0286	-0.0626
CC1(C)CCC(CN2CCN(c3ccc(C(=O)NS(=O)(=O)c4ccc(NCC5CCOCC5)c([N+](=O)[O-])c4)c(Oc4cnc5[nH]ccc5c4)c3)CC2)=C(c2ccc(Cl)cc2)C1 [Venetoclax] + CCN(CCO)CCCOc1ccc2c(Nc3cc(CC(=O)Nc4cccc(F)c4)[nH]n3)ncnc2c1 [AZD2811] (first compound max 1 µM, 7x7, partner max 1 µM)	0.0098	-0.0081	0.0653	-0.0397	0.0132	0.0471	-0.0404	-0.048	-0.0756	0.055	0.0225	-0.0928	0.0229	-0.0407	0.053	0.025	0.0005	0.0196	-0.0549	-0.0256
CC1(C)CCC(CN2CCN(c3ccc(C(=O)NS(=O)(=O)c4ccc(NCC5CCOCC5)c([N+](=O)[O-])c4)c(Oc4cnc5[nH]ccc5c4)c3)CC2)=C(c2ccc(Cl)cc2)C1 [Venetoclax] + CN(C)CCCOc1ccc(-c2ccc3ncc4c(c3c2)n(C2CCOCC2)c(=O)n4C)cn1 [AZD0156] (first compound max 1 µM, 7x7, partner max 1 µM)	-0.0135	-0.0869	0.0881	-0.0197	-0.0102	-0.0542	-0.024	-0.0013	-0.0404	0.0928	-0.0418	-0.002	-0.0366	-0.0434	-0.0237	0.0203	-0.0717	0.0715	-0.0102	-0.0272
CC1(C)CCC(CN2CCN(c3ccc(C(=O)NS(=O)(=O)c4ccc(NCC5CCOCC5)c([N+](=O)[O-])c4)c(Oc4cnc5[nH]ccc5c4)c3)CC2)=C(c2ccc(Cl)cc2)C1 [Venetoclax] + COc1cc(Nc2ncc3c(n2)-c2ccc(Cl)cc2C(c2c(F)cccc2OC)=NC3)ccc1C(=O)O [Alisertib] (first compound max 1 µM, 7x7, partner max 10 µM)	0.0168	-0.0711	0.178	-0.0338	0.077	0.0326	0.0421	-0.047	-0.0132	0.0148	-0.0544	-0.0225	-0.0093	0.0087	0.11	0.141	-0.0642	0.0303	0.0042	-0.0636
CC1(C)CCC(CN2CCN(c3ccc(C(=O)NS(=O)(=O)c4ccc(NCC5CCOCC5)c([N+](=O)[O-])c4)c(Oc4cnc5[nH]ccc5c4)c3)CC2)=C(c2ccc(Cl)cc2)C1 [Venetoclax] + C[C@@H]1COCCN1C2=NC(=NC(=C2)C3(CC3)[S@](=N)(=O)C)C4=C5C=CNC5=NC=C4 [AZD6738] (first compound max 1 µM, 7x7, partner max 10 µM)	-0.0102	-0.0584	0.154	0.023	-0.0024	-0.0671	-0.134	-0.0526	-0.0085	0.0201	-0.021	-0.0127	-0.0634	-0.0253	0.0109	-0.0193	-0.034	0.0004	0.0107	-0.0888
CC1(C)CCC(CN2CCN(c3ccc(C(=O)NS(=O)(=O)c4ccc(NCC5CCOCC5)c([N+](=O)[O-])c4)c(Oc4cnc5[nH]ccc5c4)c3)CC2)=C(c2ccc(Cl)cc2)C1 [Venetoclax] + C[C@@H](Nc1cc(F)cc(F)c1)c1cc(C(=O)N(C)C)cc2c(=O)cc(N3CCOCC3)oc12 [AZD8186] (first compound max 1 µM, 7x7, partner max 3 µM)	-0.0408	-0.0128	0.149	-0.0332	0.0157	0.0249	-0.119	0.0256	-0.0504	0.095	-0.0248	-0.0523	-0.0159	-0.0311	0.0393	0.0293	0.0015	0.21	0.0383	0.0031
CC1(C)CCC(CN2CCN(c3ccc(C(=O)NS(=O)(=O)c4ccc(NCC5CCOCC5)c([N+](=O)[O-])c4)c(Oc4cnc5[nH]ccc5c4)c3)CC2)=C(c2ccc(Cl)cc2)C1 [Venetoclax] + Cc1cc2ncnn2cc1Nc1ncc2c(n1)n(C1CCOCC1)c(=O)n2C [AZD7648] (first compound max 1 µM, 7x7, partner max 10 µM)	0.0034	-0.117	0.0584	-0.0209	-0.0016	-0.0125	-0.0674	-0.0219	-0.0416	0.063	0.0161	-0.0032	-0.0459	-0.0487	-0.0121	0.0222	-0.0904	0.109	-0.0251	-0.0011
CC1(C)CCC(CN2CCN(c3ccc(C(=O)NS(=O)(=O)c4ccc(NCC5CCOCC5)c([N+](=O)[O-])c4)c(Oc4cnc5[nH]ccc5c4)c3)CC2)=C(c2ccc(Cl)cc2)C1 [Venetoclax] + Cn1cnc2c(F)c(Nc3ccc(Br)cc3Cl)c(C(=O)NOCCO)cc21 [Selumetinib] (first compound max 1 µM, 7x7, partner max 3 µM)	-0.0107	-0.0498	0.036	0.0543	-0.024	0.083	-0.0931	-0.0454	-0.0542	0.241	-0.0275	-0.0033	-0.0624	-0.0351	0.0341	-0.0737	-0.0415	0.0788	-0.021	-0.0959
